Assays:
[1] = system: murine bone marrow-derived macrophages; assay: area under cytotoxicity dose-response curve (AUC (% cytotoxicity x dose, relative)); higher = more cytotoxic; conditions: duration: 6 days; dose range: 0.13-80 uM, 8 points
In short: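 Cytotoxicity is expressed as the area under the dose–response curve from GraphPad Prism version 10. To obtain it, primary murine bone marrow-derived macrophages were incubated for 6 days at 37 °C in 5% CO2 across final concentrations of 80–0.13 μM. Viability came from CellTiter-Glo luminescence, and percent cytotoxicity was normalised to vehicle and positive control wells.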

[2] = system: Mycobacterium tuberculosis CDC1551 (intracellular, in murine BMDM); assay: area under intracellular growth-inhibition dose-response curve (AUC (% inhibition x dose, relative)); higher = more potent; conditions: duration: 6 days; dose range: 0.13-80 uM, 8 points
In short: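 In 384-well opaque plates, primary murine bone marrow-derived macrophages were infected with luciferase-expressing M. tuberculosis CDC1551 (multiplicity of infection 1, 1 h) 24 h after seeding, then treated for 6 days across final concentrations of 80–0.13 μM. Growth was measured by Bright-Glo luciferin assay, normalised to a reference drug control and the lowest-concentration wells. The reported value is the area under the growth-inhibition dose–response curve from GraphPad Prism.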

Row | Structure (SMILES) | area under cytotoxicity dose-response curve [1] | area under intracellular growth-inhibition dose-response curve [2]
1 | CCC(CO)N1C(C)=CC(=Cc2sc3ccccc3[n+]2Cc2ccccc2)C=C1C.[Br-] (stereo not drawn) | 54.8 | 176
2 | O=C(NN=C1CCCCCCCCCCC1)c1ccncc1 | 73.9 | 262
3 | O=C(CSc1ccccc1F)NNC(=O)c1ccncc1 | 38.8 | 230
4 | CCOC(=O)/C=C/C(=O)Nc1ccc(-c2nnc3n2CCCCC3)cc1 | 34.8 | 131
5 | O=C(Nc1ccc(NC(=S)NC(=O)c2ccco2)cc1)c1ccccc1 | 40 | 192
6 | CC1CCCCC1NC(=O)c1cc2ccccc2o1 (stereo not drawn) | 32.6 | 258
7 | CCS(=O)(=O)N1CCN(C(=O)CCC2CCCC2)CC1 | 19.5 | 214
8 | CCOC(=O)c1ccc(N2CN(CC)CNC2=S)cc1 | 10.1 | 254
9 | C[n+]1c(-c2ccccc2)c2cc(N)ccc2c2ccc(N)cc21.[Br-] | 30.1 | 59.8
10 | Cc1ccc2[nH]c(/C(C#N)=C\c3ccc([N+](=O)[O-])o3)nc2c1 | 76.5 | 8.24
11 | CC(=O)O[C@H]1C[C@@]2(C)[C@@H](C[C@@H](O)[C@H]3[C@@]4(C)CC[C@@H](O)[C@@H](C)[C@@H]4CC[C@@]32C)/C1=C(\CCC=C(C)C)C(=O)O | < 0 | 206
12 | COc1c(N2CCN(C(=S)Nc3ccccc3F)C(C)C2)c(F)cc2c(=O)c(C(=O)O)cn(C3CC3)c12 (stereo not drawn) | < 0 | 275
13 | Cc1nnc(N2CCCCC2)c2ccccc12 | 15.8 | 117
14 | CSc1nsc(SCC(=O)N2CCCCC2)n1 | 59 | 93.5
15 | CCN1/C(=C\c2ccc3ccccc3[n+]2CC)Sc2cc(C)ccc21.[I-] | 175 | 117
16 | CC1CCCN(C(=O)c2ccc(CNc3c(N4CCCCC4)c(=O)c3=O)cc2)C1 (stereo not drawn) | 23 | 271
17 | FC(F)(F)c1nnc2ccc(Cl)nn12 | 62.7 | 36.2
18 | CCOC1OC(O)=C(Cl)/C1=N\c1ccccc1C (stereo not drawn) | < 0 | 231
19 | Cc1cnc(C(=O)OCC(=O)Nc2cccc3ccccc23)cn1 | < 0 | 15.8
20 | O.Sc1[nH]cnc2ncnc1-2 | < 0 | 140
21 | CCCCCCCn1c(=O)c(C(=O)Nc2cnccn2)c(O)c2ccccc21 | 7.68 | 66
22 | COc1cc(/C=N/NC(=O)c2ccncc2)ccc1OCc1cnc(Cl)s1 | 3.56 | 219
23 | O=C(NCc1ccc(F)cc1)c1ccc(Br)o1 | 42.3 | 228
24 | CC1CCC(C(C)C)C(OC(=O)C[n+]2c(-c3ccc(Br)cc3)n(C)c3ccccc32)C1.[Cl-] (stereo not drawn) | 82.2 | 192
25 | COc1ccc(CNc2ncc(-c3ccc(Br)cc3)n2C)cc1OC.O=C(O)C(=O)O | 42.6 | 113

Row | Structure (SMILES) | area under cytotoxicity dose-response curve [1] | area under intracellular growth-inhibition dose-response curve [2]
26 | O=C(/C=C/c1cccs1)NCc1cccs1 | 34.6 | 240
27 | CC(=O)NC(=S)Nc1ccc(NC(=O)c2cccnc2Cl)cc1 | < 0 | 262
28 | CC(=O)Nc1ccc(S(=O)(=O)Nc2ccc(N3CCCCC3)cc2)cc1 | 16.6 | 27.8
29 | O=C(NN=C1C2CC3CC(C2)CC1C3)c1ccncc1 | 103 | 238
30 | CCCCCCn1c(=O)c(C(=O)Nc2ncccc2C)c(O)c2ccccc21 | 47.2 | 237
31 | C/C(CC(C)(C)C1CCCCC1)=N\NC(N)=S | 119 | 238
32 | CCOC(=O)c1cc(-c2ccc(N3CCOCC3)cc2)nn1-c1ccc(F)cc1F | 22.7 | 15.8
33 | O=C(Nc1ccc(NC(=S)NC(=O)c2ccccc2F)cc1)c1cccs1 | 13.8 | 268
34 | O=C(/C=C/c1cccs1)N1CCCCC1 | < 0 | 243
35 | CCn1c(SCc2ccc(C(=O)OC)o2)nnc1-c1c[nH]c2ccccc12 | 20.1 | 117
36 | CCOc1ccc(/C=N/n2cc(-c3ccccc3)nc2S)cc1 | < 0 | 265
37 | C/C(=N/NC(=O)c1ccncc1)c1ccccc1 | < 0 | 243
38 | O=C(Cn1c(=O)cnc2ccccc21)Nc1cccc(S(=O)(=O)N2CCOCC2)c1 | 30.4 | 23.9
39 | CCOC(=O)c1ccc(NC(=O)c2cc3c(s2)CCC3)cc1 | 11.2 | 234
40 | COc1ccc(CCNC(=O)c2c(C)nc3ccccn23)cc1 | < 0 | 198
41 | CCCN(CCC)CC(O)Cn1cc(/C=C/C(=O)c2cccs2)c2ccccc21 (stereo not drawn) | 2.01 | 231
42 | Nc1ccc(C(=O)[O-])c(O)c1.[Na+] | 27.5 | 182
43 | O=C(/C=C/c1cn(CC(O)CN2CCCCCC2)c2ccccc12)c1cccs1 (stereo not drawn) | < 0 | 96.5
44 | O=[N+]([O-])c1ccc(N2CCCCC2)s1 | 14.5 | 165
45 | CCCCN(C(=O)CSc1nnc(-c2ccccc2)o1)c1c(N)n(CCC)c(=O)[nH]c1=O | < 0 | 65.6
46 | Cc1cc(Cl)ccc1NC(=S)NCC(O)c1ccccc1 (stereo not drawn) | 76.6 | 126
47 | CC(=O)Nc1ccc(/C(C)=N/NC(=O)c2ccncc2)cc1 | 0.755 | 250
48 | O=C(NCc1ccc(Cl)cc1)c1ccc(Br)o1 | 52.2 | 204
49 | c1ccc2c(c1)-c1cccc3cncc-2c13 | 36.8 | 200

From the supplement of paper PMC11997997
